Source: patent US4209529A, “Farnesyl carboxylic acid α-bisabolol ester, a mucosal stabilizing composition and method of manufacturing the same” (Kotobuki Seiyaku Company Limited, priority 1977, dated 1980)

Assays:
gastric epithelial cell = assay: N-acetyl neuromatic acid (NANA) in gastric juice of pylorus-ligated rats (gastric epithelial cell stabilizing effect); type: in vivo, rat (male Donryu strain); set-up: unit not given here; details: 200 mg./kg. orally, three times a day for 5 days, and after pylorus ligation, 8 h ligation
Experimental: (§1) Male Donryu strain rats, weighing about 200 g., were divided into five groups. […] On the fifth day the animals were fasted for 24 hours, and submitted to pylorus ligation under light ether anethesia.
(§2) The drugs were given just after pylorus ligation orally. After 8 hours of ligation, the rats were sacrificed and gastric juice was collected.

gastric mucosa = assay: Gastric errosion induced by 8 hours of pylorus ligation; type: in vivo, rat (male Donryu strain); details: 200 mg./kg. orally
Experimental: as §1, §2

[1] = test system: carrageenin-induced rat paw edema; assay: Carrageenin-induced rat paw edema; type: in vivo, rat (Wistar); details: 300 mg./kg. per os
Experimental: To study the effect of the present compound on carrageenin-induced rat paw edema, the method of C. A. Winter (J. Pharmacol 141,369, (1963)) was applied. Wistar rats, weighing about 140 g. were used.
The present compound (III), α-bisabolol and farnesyl carboxylic acid were administered at a dosage of 300 mg./kg. (per os.) using a 1% CMC solution as the vehicle. The % inhibition was calculated as follows: [formula]

stress ulcer = assay: Stress ulcer; type: in vivo, rat (male Wistar strain); details: 100 mg./kg. per os, 30 minutes before the stress; 18 hours stress
Experimental: To study the anti-ulcerative actions of the test drugs in experimental animals, the stress ulcer was selected. Male rats of the Wistar strain, weighing 200-250 g. were subjected to stress according to Takagi et. al. (Chem. Pharm. Bull 12,465. 1964). The four test drugs, the present compound (III), α-bisabolol (I), farnesyl carboxylic acid (II) and gefarnate were suspended in 1% methyl cellulose and were administered to the rats in a dose of 100 mg./kg. body weight per os, 30 minutes before the stress. The animals were placed in the stress box and immersed in water bath of 20°-25° C. to the level of the xiphoid process for 18 hours.
At the end of the stress the animals were removed from the stress box, killed by a blow on the head, and the stomach removed. The stomach was filled with 1% formalin solution, placed in 1% formalin solution for 15 minutes and was then cut open along the greater curvature and examined for lesions to obtain the ulcer index. The ulcer index was determined in six grades (0-5; 5 implying perforation of stomach).

5-HT induced ulcer = assay: 5-HT induced ulcer; type: in vivo, rat
Experimental: In the following experiments, the effects of test drugs on 5-HT induced ulcer were investigated. To induce the gastric lesion, rats were fasted for 24 hours before injection of 5-HT 30 mg./kg. S.C. The animals were sacrificed after 20 hours of 5-HT injections, and examined for lesion. The dose and route of administration of test drugs are the same as experiment 3. In the experiment, the area of lesions (mm.^2) were measured as the ulcer-index.

aspirin ulcer = assay: Aspirin-induced gastric mucosal lesion (aspirin ulcer); type: in vivo; details: aspirin 100 mg./kg. per os
Experimental: (§3) Each drug in Table 5, suspended with TWEEN 80 and 1% CMC solution, was given either intraduodenally immediately after pylorus ligation (aspirin ulcer) or orally (indomethacin ulcer) at the volume of 0.5 ml./100 g. Aspirin was given orally 10 min. after pylorus ligation. Indomethacin was given orally 10 min. after drug administration. All animals were sacrificed 7 hrs. after operation.

indomethacin ulcer = assay: Indomethacin-induced gastric mucosal lesion (indomethacin ulcer); type: in vivo; details: 300 mg./kg. orally; indomethacin 20 mg./kg. per os
Experimental: The preventive activity of new compound (III) against the formation of gastric mucosal lesion induced by the gastric ulcerogenic, anti-inflammatory drugs, indomethacin and aspirin was evaluated according to Okabe et. al. (Jap. J. Pharmacol. 24 169 p. 1974, Amer. J. Dig. Dis. 20 626 1975).
as §3

[2] = LD50 by the up and down method; type: in vivo; details: mouse, in vivo, po; per os; observations for 24 hours
Experimental: (§4) The LD50 value of the present compound in ddY strain mice was determined by the up and down method, with observations carried out for 24 hours.
(§5) The test drugs used in this experiment were suspended in 1% methyl cellulose and were given orally.

ddY strain mice = assay: LD50 by the up and down method; type: in vivo; details: per os; ratio of LD50
Experimental: as §4, §5

[3] = Other pharmacological experiment (mucosal stabilizing, anti-inflammative, wound-healing); details: another experiment, no data shown
Chemical stability = type: physicochemical
[4] = cited from earlier work; for sedative or depressive activities: Ann. Pharm. France, 33, 229 ('75); for anti-inflammative and anti-ulcerative activities: literature

## CC(C)=CCCC(C)=CCCC(C)=CCC(=O)OC(C)(CCC=C(C)C)C1CC=C(C)CC1 (stereo not shown) [Compound (III), 4,8,12-1,5-dimethyl-1-(4-methyl-3-cyclohexenyl)-4-hexenyl ester of 4,8,12-trimethyl-3,7,11-tridecatrienoic acid]
Gastric epithelial cell
  Amounts of NANA, bond: 71.8
  Amounts of NANA, free: 16.2
  Amounts of NANA, total: 88.9
Gastric mucosa
  damage to the gastric mucosa (gastric errosion): did not produce any damage to the gastric mucosa
[1]
  Increase in % of paw edema: 60.4%
  Maximum % Inhibition: 39.6%
  increased rate of paw-edema (fraction): 0.604
Stress ulcer
  score (ulcer index, grades 0-5): 1.5 ± 0.50
5-HT induced ulcer; 100 mg./kg.
  inhibition of the occurrence of lesions: inhibits the occurrence of lesions completely
5-HT induced ulcer; 100 mg./kg. per os, 5-HT 30 mg./kg. S.C., 20 hours
  Ulcer Index (area of lesions): 0 mm.^2
Aspirin ulcer; 100 mg./kg. intraduodenally
  Inhibition: 29.8%
  Ulcer Index, means ± s.e.: 21.4 ± 4.4 mm.^2
Aspirin ulcer; 300 mg./kg. intraduodenally
  Inhibition: 44.6%
  Ulcer Index, means ± s.e.: 16.9 ± 3.6 mm.^2
Aspirin ulcer; 1000 mg./kg. intraduodenally
  Inhibition: 65.2%
  Ulcer Index, means ± s.e.: 10.6 ± 2.2 mm.^2
Indomethacin ulcer
  Inhibition: 42.6%
  Ulcer Index, means ± s.e.: 26.4 ± 5.4 mm.^2
[2]
  LD50 at 24 h: 24.1 mg/kg
ddY strain mice
  toxicity, times less than that of α-bisabolol and farnesyl carboxylic acid: 6-7 times
[3]
  mucosal stabilizing, anti-inflammative and wound-healing activities: possess mucosal stabilizing anti-inflammative, and wound-healing activities
Chemical stability
  chemical stability: chemically stable

## CC(C)=CCCC(C)=CCCC(C)=CCC(=O)O [Farnesyl carboxylic acid, 4,8,12-trimethyl-3,7,11-tridecatrienoic acid]
Gastric epithelial cell
  Amounts of NANA, bond: 80.6
  Amounts of NANA, free: 18.3
  Amounts of NANA, total: 98.6
[1]
  Increase in % of paw edema: 76.7%
  Maximum % Inhibition: 23.3%
  increased rate of paw-edema (fraction): 0.767
Stress ulcer
  score (ulcer index, grades 0-5): 2.33 ± 0.84
[2]
  LD50 at 24 h: 4.26 mg/kg

## CC(C)=CCC/C(C)=C/CC/C(C)=C/CCC(=O)OC/C=C(\C)CCC=C(C)C [Gefarnate]
Gastric epithelial cell
  Amounts of NANA, bond: 72.8
  Amounts of NANA, free: 20.8
  Amounts of NANA, total: 93.6
Stress ulcer
  score (ulcer index, grades 0-5): 3.83 ± 0.73
Aspirin ulcer; 100 mg./kg. intraduodenally
  Inhibition: 22.3%
  Ulcer Index, means ± s.e.: 23.7 ± 3.2 mm.^2
Aspirin ulcer; 300 mg./kg. intraduodenally
  Inhibition: 49.9%
  Ulcer Index, means ± s.e.: 16.2 ± 2.9 mm.^2
Aspirin ulcer; 1000 mg./kg. intraduodenally
  Inhibition: 49.5%
  Ulcer Index, means ± s.e.: 15.4 ± 4.4 mm.^2

## C=CC(C)=CCC=C(C)CCC=C(C)C [farnesene]
[4]
  sedative or depressive activities: sedative or depressive activities
  anti-inflammative and anti-ulcerative activities: anti-inflammative and anti-ulcerative activities

## CC(C)=CCCC(C)(O)C1CC=C(C)CC1 (stereo not drawn) [α-Bisabolol, α-bisabolol]
Gastric epithelial cell
  Amounts of NANA, bond: 136.3
  Amounts of NANA, free: 12.4
  Amounts of NANA, total: 148.7
[1]
  Increase in % of paw edema: 88.1%
  Maximum % Inhibition: 11.9%
  increased rate of paw-edema (fraction): 0.881
Stress ulcer
  score (ulcer index, grades 0-5): 4.0 ± 0.25
[2]
  LD50 at 24 h: 3.67 mg/kg
[4]
  sedative or depressive activities: sedative or depressive activities
  anti-inflammative and anti-ulcerative activities: anti-inflammative and anti-ulcerative activities
